The target of the test is T1, Human autotaxin enzyme (Homo sapiens, UniProt Q13822).
T1 construct: purchased R&D System
The test is described as follows: Evaluation of autotaxin inhibitor, Method C (Test Example 3): 18:0 Lyso PC, choline assay, Resorufin fluorescence. It counts as biochemical. To be noted: Assay Method C (Test Example 3), human autotaxin, 18:0 Lyso PC substrate; read-out: Inhibitory Activity (autotaxin enzyme inhibitory activity, IC50 class). Summed up: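 Human autotaxin in Tris-HCl pH 7.5, 150 mM NaCl, 5 mM MgCl2, 0.05% Triton X-100 reacted 2 h at room temperature with 18:0 Lyso PC (200 μM solution added). Released choline detected via choline oxidase/peroxidase/Amplex-type reagent, resorufin fluorescence (ex 531/em 598 nm); inhibition vs no-compound and no-enzyme controls, concentration-response curve.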
Turning to `CCCCCn1c(N2CCC[C@H]2C(=O)NC(CO)C(=O)O)cc(=O)n2cc(-c3ccc(Cl)cc3)nc12` (some centres unmarked) [Compound 672], the IC50 was in the range of 10 to 100 nM.

Regarding `CCCCCn1c(N2CCC[C@H]2C(=O)N2CCC[C@@H](C(=O)O)C2)cc(=O)n2cc(-c3ccc(Cl)cc3)nc12` [Compound 673], the IC50 was below 10 nM.

With `CCCCCn1c(N2CCC[C@H]2C(=O)NC(C)(C)C(=O)O)cc(=O)n2cc(-c3ccc(Cl)cc3)nc12` [Compound 674], the IC50 is below 10 nM. With `CCCCCn1c(N2CCC[C@H]2C(=O)N[C@@H](C)C(=O)O)cc(=O)n2cc(-c3ccc(Cl)cc3)nc12` [Compound 675] the figure was below 10 nM.

`CCCCCn1c(N2CCC[C@H]2C(=O)NC(C)(C)C(C)C(=O)O)cc(=O)n2cc(-c3ccc(Cl)cc3)nc12` (some centres unmarked) [Compound 676]: the IC50 is below 10 nM.

Take `CCCCCn1c(N2CCC[C@H]2C(=O)N2CCC[C@H](C(=O)O)C2)cc(=O)n2cc(-c3ccc(Cl)cc3)nc12` [Compound 677]: the IC50 is below 10 nM. `CCCCCn1c(N2CCC[C@H]2C(=O)N[C@H](C)C(=O)O)cc(=O)n2cc(-c3ccc(Cl)cc3)nc12` [Compound 678]: the IC50 fell in the range of 10 to 100 nM. With `CCCCCn1c(N2CCC[C@H]2C(=O)NC2(C(=O)O)CC2)cc(=O)n2cc(-c3ccc(Cl)cc3)nc12` [Compound 679] the figure was below 10 nM. On to `CCCCCn1c(N2CCC[C@H]2C(=O)N2CCO[C@H](C(=O)O)C2)cc(=O)n2cc(-c3ccc(Cl)cc3)nc12` [Compound 680], for which the IC50 lay in the range of 10 to 100 nM. Regarding `CCCCCn1c(N2CCC[C@H]2C(=O)N2CCO[C@@H](C(=O)O)C2)cc(=O)n2cc(-c3ccc(Cl)cc3)nc12` [Compound 681], the IC50 is below 10 nM. As for `CCCCCn1c(N2CCN(C(=O)OC(C)(C)C)CC2)cc(=O)n2cc(-c3ccc(Cl)cc3)nc12` [Compound 682], the figure is 100 to 1000 nM; as for `CCCCCn1c(N2CCC[C@H]2C(=O)N(C)CC(=O)OC)cc(=O)n2cc(-c3ccc(Cl)cc3)nc12` [Compound 683], 10 to 100 nM. Consider `CCCCCn1c(N2CCC[C@H]2C(=O)N(C)CC(=O)N(C)CC(=O)OC)cc(=O)n2cc(-c3ccc(Cl)cc3)nc12` [Compound 684], for which the IC50 was 10 to 100 nM.

Take `CCCCCn1c(N2CCC[C@H]2C(=O)NC(C)C(=O)OC)cc(=O)n2cc(-c3ccc(Cl)cc3)nc12` (some centres unmarked) [Compound 685]: the IC50 was below 10 nM.

As to `CCCCCn1c(N2CCC[C@H]2C(=O)NC(CO)C(=O)OC)cc(=O)n2cc(-c3ccc(Cl)cc3)nc12` (some centres unmarked) [Compound 686], the 50% inhibitory concentration (IC50) lay within 10 to 100 nM.

Regarding `CCCCCn1c(N2CCC[C@H]2C(=O)N[C@@H](CO)C(=O)OC)cc(=O)n2cc(-c3ccc(Cl)cc3)nc12` [Compound 687], the half-inhibitory concentration (IC50) was 100 to 1000 nM. With `CCCCCn1c(N2CCC[C@H]2C(=O)N2CCC[C@@H](C(=O)OCC)C2)cc(=O)n2cc(-c3ccc(Cl)cc3)nc12` [Compound 688] the figure was 10 to 100 nM. With `CCCCCn1c(N2CCC[C@H]2C(=O)NC(C)(C)C(=O)OC)cc(=O)n2cc(-c3ccc(Cl)cc3)nc12` [Compound 689] the figure was below 10 nM; with `CCCCCn1c(N2CCC[C@H]2C(=O)N[C@@H](C)C(=O)OC)cc(=O)n2cc(-c3ccc(Cl)cc3)nc12` [Compound 690], 10 to 100 nM.

Consider `CCCCCn1c(N2CCC[C@H]2C(=O)N2CCC[C@H](C(=O)OCC)C2)cc(=O)n2cc(-c3ccc(Cl)cc3)nc12` [Compound 691], for which the IC50 was 100 to 1000 nM. In the case of `CCCCCn1c(N2CCC[C@H]2C(=O)N[C@H](C)C(=O)OC)cc(=O)n2cc(-c3ccc(Cl)cc3)nc12` [Compound 692], the IC50 lay in the range of 10 to 100 nM. With `CCCCCn1c(N2CCC[C@H]2C(=O)NC2(C(=O)OC)CC2)cc(=O)n2cc(-c3ccc(Cl)cc3)nc12` [Compound 693], the IC50 is 10 to 100 nM.

Regarding `CCCCCn1c(N2CCC[C@H]2C(=O)NC2CCCCNC2=O)cc(=O)n2cc(-c3ccc(Cl)cc3)nc12` (some centres unmarked) [Compound 694], the IC50 lay within 10 to 100 nM.

As for `CCCCCn1c(N2CCC[C@H]2C(=O)N2CCCC(C(N)=O)C2)cc(=O)n2cc(-c3ccc(Cl)cc3)nc12` (some centres unmarked) [Compound 695], the IC50 was in the range of 100 to 1000 nM. As for `CCCCCn1c(N2CCC[C@H]2C(=O)N2CCCC(C(=O)OCC)C2)cc(=O)n2cc(-c3ccc(Cl)cc3)nc12` (some centres unmarked) [Compound 696], the figure is 100 to 1000 nM; as for `CCCCCn1c(N2CCC[C@H]2C(=O)N2CCNC(=O)C2)cc(=O)n2cc(-c3ccc(Cl)cc3)nc12` [Compound 697], 10 to 100 nM; as for `CCCCCn1c(N2CCC[C@H]2C(=O)N2CCNC(=O)CC2)cc(=O)n2cc(-c3ccc(Cl)cc3)nc12` [Compound 698], 10 to 100 nM. Consider `CCCCCn1c(N2CCC[C@H]2C(=O)NCC(=O)N(C)C)cc(=O)n2cc(-c3ccc(Cl)cc3)nc12` [Compound 699], for which the IC50 fell in the range of 100 to 1000 nM. With `CCCCCn1c(N2CCC[C@H]2C(=O)NC2CCNC2=O)cc(=O)n2cc(-c3ccc(Cl)cc3)nc12` (some centres unmarked) [Compound 700] the figure was 10 to 100 nM; with `CCCCCn1c(N2CCC[C@H]2C(=O)N2CCC(C(N)=O)C2)cc(=O)n2cc(-c3ccc(Cl)cc3)nc12` (some centres unmarked) [Compound 701], 100 to 1000 nM; with `CCCCCn1c(N2CCC[C@H]2C(=O)N[C@@H]2CCNC2=O)cc(=O)n2cc(-c3ccc(Cl)cc3)nc12` [Compound 702], 10 to 100 nM.

`CCCCCn1c(N2CCC[C@H]2C(=O)N(C)CC(=O)N(C)C)cc(=O)n2cc(-c3ccc(Cl)cc3)nc12` [Compound 703]: the IC50 lay within 10 to 100 nM. As to `CCCCCn1c(N2CCC[C@H]2C(=O)N(C)CC(N)=O)cc(=O)n2cc(-c3ccc(Cl)cc3)nc12` [Compound 704], the IC50 is 10 to 100 nM. On to `CCCCCn1c(N2CCC[C@H]2C(=O)N[C@@H]2CNC(=O)C2)cc(=O)n2cc(-c3ccc(Cl)cc3)nc12` [Compound 705], for which the IC50 lay in the range of 100 to 1000 nM. On to `CCCCCn1c(N2CCC[C@H]2C(=O)NCC(=O)C(C)(C)C)cc(=O)n2cc(-c3ccc(Cl)cc3)nc12` [Compound 706], for which the IC50 is 10 to 100 nM. With `CCCCCn1c(N2CCC[C@H]2C(=O)N[C@H]2CCCCNC2=O)cc(=O)n2cc(-c3ccc(Cl)cc3)nc12` [Compound 707] the figure was 100 to 1000 nM. As to `CCCCCn1c(N2CCC[C@H]2C(=O)N[C@H]2CCNC2=O)cc(=O)n2cc(-c3ccc(Cl)cc3)nc12` [Compound 708], the IC50 lay within 10 to 100 nM. As for `CCCCCn1c(N2CCC[C@H]2C(=O)N[C@H](C)C(N)=O)cc(=O)n2cc(-c3ccc(Cl)cc3)nc12` [Compound 709], the figure is 100 to 1000 nM. In the case of `CCCCCn1c(N2CCC[C@H]2C(=O)NC2CCCNC2=O)cc(=O)n2cc(-c3ccc(Cl)cc3)nc12` (some centres unmarked) [Compound 710], the IC50 was in the range of 100 to 1000 nM. With `CCCCCn1c(N2CCC[C@H]2C(=O)N[C@@H]2CCCNC2=O)cc(=O)n2cc(-c3ccc(Cl)cc3)nc12` [Compound 711] the figure was 100 to 1000 nM. With `CCCCCn1c(N2CCC[C@H]2C(=O)N[C@H]2CNC(=O)C2)cc(=O)n2cc(-c3ccc(Cl)cc3)nc12` [Compound 712] the figure was 100 to 1000 nM; with `CCCCCn1c(N2CCN(C(=O)c3ccc(O)cc3)CC2)cc(=O)n2cc(-c3ccc(Cl)cc3)nc12` [Compound 713], 10 to 100 nM. As to `CCCCCn1c(NCC2(CO)COC2)cc(=O)n2cc(-c3ccc(Cl)cc3)nc12` [Compound 714], the IC50 was in the range of 100 to 1000 nM. With `CCCCCn1c(N2CCC3(COC3)C2)cc(=O)n2cc(-c3ccc(Cl)cc3)nc12` [Compound 715] the figure was 10 to 100 nM; with `CCCCCn1c(N2CCC3(CC2)COC3)cc(=O)n2cc(-c3ccc(Cl)cc3)nc12` [Compound 716], 100 to 1000 nM. On to `CCCCCn1c(OCC2(F)COC2)cc(=O)n2cc(-c3ccc(Cl)cc3)nc12` [Compound 718], for which the IC50 lay within 10 to 100 nM.

With `CCCCCn1c(OCC2(C)COC2)cc(=O)n2cc(-c3ccc(Cl)cc3)nc12` [Compound 719], the IC50 lay within 100 to 1000 nM.

For `CCCCCn1c(OCC2COC2)cc(=O)n2cc(-c3ccc(Cl)cc3)nc12` [Compound 720], the IC50 was 100 to 1000 nM. As for `CCCCCn1c(N2CCC[C@H]2C(=O)N[C@@H](Cc2c[nH]cn2)C(=O)O)cc(=O)n2cc(-c3ccc(Cl)cc3)nc12` [Compound 721], the figure is 10 to 100 nM. With `CCCCCn1c(N2CCC[C@H]2C(=O)N[C@H](C(=O)O)C(C)(C)C)cc(=O)n2cc(-c3ccc(Cl)cc3)nc12` [Compound 722] the figure was below 10 nM; with `CCCCCn1c(N2CCC[C@H]2C(=O)N[C@H](C(=O)O)C(C)C)cc(=O)n2cc(-c3ccc(Cl)cc3)nc12` [Compound 723], below 10 nM.

For `CCCCCn1c(N2CCC[C@H]2C(=O)N[C@@H](Cc2cccc3ccccc23)C(=O)O)cc(=O)n2cc(-c3ccc(Cl)cc3)nc12` [Compound 724], the IC50 was below 10 nM.

As for `CCCCCn1c(N2CCC[C@H]2C(=O)N[C@H](Cc2ccccc2)C(=O)O)cc(=O)n2cc(-c3ccc(Cl)cc3)nc12` [Compound 725], the IC50 was 10 to 100 nM. In the case of `CCCCCn1c(N2CCC[C@H]2C(=O)N[C@@H](Cc2ccc3ccccc3c2)C(=O)O)cc(=O)n2cc(-c3ccc(Cl)cc3)nc12` [Compound 726], the IC50 is below 10 nM.

For `CCCCCn1c(N2CCC[C@H]2C(=O)N[C@H](C(=O)O)C(c2ccccc2)c2ccccc2)cc(=O)n2cc(-c3ccc(Cl)cc3)nc12` [Compound 727], the half-maximal inhibitory concentration (IC50) was in the range of 100 to 1000 nM.

In the case of `CCCCCn1c(N2CCC[C@H]2C(=O)N[C@@H](CCCC)C(=O)O)cc(=O)n2cc(-c3ccc(Cl)cc3)nc12` [Compound 728], the IC50 is below 10 nM. As for `CCCCCn1c(N2CCC[C@H]2C(=O)N[C@@H](CC)C(=O)O)cc(=O)n2cc(-c3ccc(Cl)cc3)nc12` [Compound 729], the figure is below 10 nM.

As to `CCCCCn1c(N2CCC[C@H]2C(=O)N[C@@H](CC(C)(C)C)C(=O)O)cc(=O)n2cc(-c3ccc(Cl)cc3)nc12` [Compound 730], the IC50 was below 10 nM. As for `CCCCCn1c(N2CCC[C@H]2C(=O)N[C@@H](CCC)C(=O)O)cc(=O)n2cc(-c3ccc(Cl)cc3)nc12` [Compound 731], the IC50 is below 10 nM.

The record behind these values is patent publication US20160002247A1, “8-SUBSTITUTED IMIDAZOPYRIMIDINONE DERIVATIVE HAVING AUTOTAXIN INHIBITORY ACTIVITY” (THE UNIVERSITY OF TOKYO, priority 2013, published 2016).
